Experimental data taken from patent US11000482B2, “Fabrication of a suramin-loaded nanoparticle and its application” (UNIVERSITY OF SOUTH CAROLINA, priority 2018, dated 2021).
pIC50: −log10 of the molar value.

Legend:
MDA-MB-231/Luc-GFP cells = assay: Breast cancer lung metastasis mouse model (tail vein MDA-MB-231/Luc-GFP); assay type: in vivo, Female athymic mice (nu/nu)
Protocol: All animal experiments were conducted in accordance with NIH regulations and approved by the Institutional Animal Care and Use Committee of the University of South Carolina. Female athymic mice at the age of 6 to 8 weeks (nu/nu) were obtained from Jackson laboratory. […] Mice were then randomly divided into 5 groups and received the following treatments: 1) saline only; 2) SM at the dose of 3.5 mg/kg once per week; 3) free SM and DOX at the dose of 3.5 mg/kg of SM and 0.5 mg/kg of DOX once per week; 4) GCS-SM NPs at the dose of 3.5 mg/kg of SM once per week; 5) GCS-SM/DOX NPs at the dose of 3.5 mg/kg of SM and 0.5 mg/kg of DOX (molar ratio of SM to DOX is 17:1) once per week. The whole treating procedure lasted for two months and the progression of tumors was monitored every week by luminescence with an IVIS Lumia system after i.v. injection of luciferin (30 mg/mL, 50 μL). Bodyweights of the mice were recorded at the same time. At the endpoint of each mouse, organs were isolated and collected. The weights of the lungs were recorded. Fluorescent images of the lungs were also captured. The collected organs were fixed in 10% neutralized formalin solution and embedded in paraffin.

MDA-MB-231 cells [1] = assay: MTT cell viability assay with combination index analysis; assay type: cell-based, human
Protocol: The anticancer activities of the combination of DOX and SM were investigated with an MTT colorimetric assay. Cells with or without a/b FGF treatment were seeded in 96-well plates at an initial density of 20,000 cells/well. After 24 hours of incubation, the medium was replaced with 150 μL of fresh medium containing different treatments, including DOX, SM, and the combination of DOX and SM, and continued to be incubated for an additional 24 hours or 48 hours. Afterwards, the media were replaced with 100 μL fresh media containing 1 mg/mL MTT reagent and incubated for another 4 hours. The formed MTT crystals were dissolved with a stop solution and the final optical density of the medium was measured using a microplate reader (ELX808, Bio-Tech Instrument, Inc.) at λ=595 nm. A combination index (CI) analysis based on the Chou-Talalay method was performed using CalcuSyn software.

MDA-MB-231 cells [2] = assay: Wound healing (cell migration) assay; assay type: cell-based, human; details: MDA-MB-231 pretreated with a/b FGF, live cell imaging
Protocol: The migration of breast cancer cells was evaluated with a wound healing assay. Living videos of cell migration in a 24-well plate were acquired with a Zeiss 710 LM confocal microscope. MDA-MB-231 cells were pretreated with a/b FGF for 24 hours. After that, a wound was created by scraping the cell monolayer in a straight line with a p200 tip, and cell debris was removed by washing with PBS three times. Cells were incubated with different treatments and allowed to grow in a 37° C. chamber with 5% CO2 for 24 hours. Videos were taken using a confocal microscope with a transmittance channel continuously at 10× magnification.

[3] = tested on: CD31 stained microvessels in tumor tissues; assay: CD31 immunohistochemistry of tumor microvessels; assay type: in vivo, Female athymic mice (nu/nu); details: CD31 IHC
Protocol: Tissue sections of 5 μm thickness were obtained from the formalin fixed, paraffin embedded tissue blocks with a microtome. The standard hematoxylin and eosin staining was performed in the lung, liver and kidney tissue sections of each group. To study the tumor neovasculature, CD31 IHC was applied to identify the intra-tumor blood vessel distribution. The section was deparaffinized and treated for 30 minutes with 0.5 M Tris buffer (pH 10) at 95° C. for antigen retrieval. Sections were blocked in 5% goat serum for 20 min at room temperature. The sections were blocked with peroxidase block for 5 minutes and incubated with a primary antibody (rabbit polyclonal anti-CD31 antibody) diluted with 1% BSA (1:50) for 1 hour at room temperature, followed by the staining with peroxidase labelled polymer for 30 minutes at room temperature. The sections were then developed with the substrate-DAB for 5 minutes at room temperature and counterstained with Gill's Hematoxylin for 10 seconds. The slides were mounted with ProLong® Gold Antifade Mountant and imaged at 40× magnification with a microscope.

[4] = tested on: Human umbilical vein endothelial cells (HUVECs); assay: Endothelial tube formation assay; assay type: cell-based; details: HUVEC on Geltrex
Protocol: Human umbilical vein endothelial cells (HUVECs) were cultured and maintained in a complete EGM Medium. Cells were stained with Celltracker Deep red (1 μM) for 30 minutes prior to the experiment. One hundred and fifty microliters (μL) of Geltrex® (Thermofisher) was added to each well in a 24-well plate and allowed to be polymerized for 30 minutes at 37° C. HUVEC cells were seeded in each well at a density of 2×10^5 cells/mL. SM, GCS, and GCS-SM NPs at concentrations of 10 μM and 20 μM were mixed with cells prior to seeding in the coated gel layer. The tube formation was photographed at 6 hours and 20 hours with an inverted phase contrast microscope (Canon Powershot A640) in a randomly selected field under 10× magnification, and the number of formed tubes and length of the tubes were quantified manually by Image J. Fluorescent images of cells were photographed by Zeiss 710 LM confocal microscope under 10× magnification.

MDA-MB-231 cells [5] = assay: Transwell Matrigel cell invasion assay; assay type: cell-based, human; details: 40 μM SM, 16 hours; control 952
Protocol: BD cell culture inserts with a pore size of 8 μm (BD, Biosciences) were pre-coated with 100 μL of Matrigel at the concentration of 0.2 mg/mL (dilution from BD Matrigel stock 10 mg/mL with coating buffer). MDA-MB-231 cells were seeded at a density of 70,000 cells per 50 μL in the inserts in an FBS-free DMEM medium. SM or GCS-SM NPs was then added to the inserts together with 50 μL serum free medium. Each lower chamber was supplied with 1.2 mL 10% FBS containing medium supplemented with different treatments that were the same as each respective top chamber. After 16 hours of incubation, the inserts were washed with PBS and fixed with methanol. Subsequently, cells were stained with hematoxylin and washed twice with PBS. The membrane in each of the inserts was then cut and mounted onto a coverslip, and the cell number was counted with a light microscope under 10× magnification. Each well was imaged at 5 different fields, and the invasion rate was expressed by the average number of cells per microscopic field.

human prostate PC3 cells = details: in the presence of doxorubicin; cited from earlier work
[6] = Histology (H&E) of lung, liver, kidney and TEM of heart of treated mice; assay type: in vivo, Female athymic mice (nu/nu)
Protocol: All animal experiments were conducted in accordance with NIH regulations and approved by the Institutional Animal Care and Use Committee of the University of South Carolina. Female athymic mice at the age of 6 to 8 weeks (nu/nu) were obtained from Jackson laboratory. MDA-MB-231/Luc-GFP cells were implanted by tail vein injection (2×10^6 cells in 100 μL PBS). Mice were then randomly divided into 5 groups and received the following treatments: 1) saline only; 2) SM at the dose of 3.5 mg/kg once per week; 3) free SM and DOX at the dose of 3.5 mg/kg of SM and 0.5 mg/kg of DOX once per week; 4) GCS-SM NPs at the dose of 3.5 mg/kg of SM once per week; 5) GCS-SM/DOX NPs at the dose of 3.5 mg/kg of SM and 0.5 mg/kg of DOX (molar ratio of SM to DOX is 17:1) once per week. The whole treating procedure lasted for two months and the progression of tumors was monitored every week by luminescence with an IVIS Lumia system after i.v. injection of luciferin (30 mg/mL, 50 μL). Bodyweights of the mice were recorded at the same time. At the endpoint of each mouse, organs were isolated and collected. The weights of the lungs were recorded. Fluorescent images of the lungs were also captured. The collected organs were fixed in 10% neutralized formalin solution and embedded in paraffin.
Tissue sections of 5 μm thickness were obtained from the formalin fixed, paraffin embedded tissue blocks with a microtome. […]

[7] = In vitro release kinetics by dialysis in PBS; assay type: physicochemical; details: within 1 hour, free drug
Protocol: Two milliliters of GCS-SM/DOX NPs were loaded in dialysis bags (MWCO: 6-8 KDa, Spectrum laboratories) and were put into 25 mL of PBS (pH 7.4, 100 mM) at 37° C. under continuous stirring. At predesigned time points, 1 mL of media was withdrawn. Concentrations of SM or DOX were determined by UV-Vis spectrometer (Beckman, DU650) at 312 nm and 480 nm, respectively. All experiments were carried out in triplicate independently.

MDA-MB-231 cells [8] = assay: Cellular uptake and subcellular distribution of DOX (FACS, confocal, cell fractionation); assay type: cell-based, human
Protocol: Cellular uptake of GCS-SM/DOX NPs was quantified by flow cytometry and confocal microscopy. The intracellular distribution of the DOX was measured by cell fraction assay. MDA-MB-231 cells were seeded in 12 well plates at 200,000 cells/well and treated with DOX or GCS-SM/DOX NPs at the DOX concentration of 1 μM for 3 hours. Afterwards, cells were washed 3 times with cold PBS to remove un-bound DOX or nanoparticles. Cells were collected, fixed in 4% formaldehyde, and analyzed by FACS (BD Accuri C6, BD Biosciences).
To further investigate the uptake behaviors of nanoparticles, confocal microscopy was employed. MDA-MB-231 cells were seeded in petri dishes and treated with DOX or GCS-SM/DOX NPs at a DOX concentration of 1 μg/mL. After 3 hours of co-incubation, cells were washed 3 times and images were taken with a Zeiss 710 LM confocal microscope.
GCS-SM/DOX NPs were incubated with MDA-MB-231 cells at 37° C. for 1 hour. Cells were washed 3 times, then collected by scraping. Cells were subjected to subcellular fractionation after the treatment. […] DOX uptake amount was quantified by the fluorescent intensity at the excitation at 485 nm with the emission at 585 nm. The protein concentration of cytosol and nuclear fraction were quantified by BCA assay kit.

Compound | survival rates versus control (MDA-MB-231/Luc-GFP cells; Kaplan-Meier at 12 weeks) | median survival time (MDA-MB-231/Luc-GFP cells; Kaplan-Meier at 12 weeks, control 64.5 days) | proliferation of cancer cells and metastasis (whole-body luminescence) (MDA-MB-231/Luc-GFP cells; SM 3.5 mg/kg and/or DOX 0.5 mg/kg once per week, imaging over 6 weeks) | body weight change (MDA-MB-231/Luc-GFP cells; after 8 weeks of treatment) | effect on lung weight (MDA-MB-231/Luc-GFP cells; compared to control group) | cytotoxicity (MDA-MB-231 cells [1]; 200 μM SM, 24 hours, MDA-MB-231) | pIC50 (MDA-MB-231 cells [1]; Homo sapiens, 48 hours of treatment, MDA-MB-231) | inhibition of cell proliferation (cytotoxicity) (MDA-MB-231 cells [1]; concentrations up to 200 μM, within 24 h) | inhibitory effect on cell migration (MDA-MB-231 cells [2]) | formation of new microvessels in tumor tissues [3] | tube formation ability of HUVECs [4] | number of invaded MDA-MB-231 cells in each view area (MDA-MB-231 cells [5]) | concentration reversing FGF-induced drug resistance (human prostate PC3 cells) | kidney histology [6] | lung histology: tumor area [6] | release of free DOX [7] | cytotoxicity of DOX on further increase of SM (MDA-MB-231 cells [1]; SM 20 μM or 100 μM, presence of a/b FGF) | cytotoxicity of DOX on addition of SM (MDA-MB-231 cells [1]; addition of 10 μM SM, presence of a/b FGF) | DOX cellular uptake (MDA-MB-231 cells [8]; MDA-MB-231 pretreated with a/b FGF, confocal/FACS, 1-6 hours) | subcellular localization of DOX (MDA-MB-231 cells [8]; confocal, after 3 hours of treatment)
Cc1ccc(C(=O)Nc2ccc(S(=O)(=O)O)c3cc(S(=O)(=O)O)cc(S(=O)(=O)O)c23)cc1NC(=O)c1cccc(NC(=O)Nc2cccc(C(=O)Nc3cc(C(=O)Nc4ccc(S(=O)(=O)O)c5cc(S(=O)(=O)O)cc(S(=O)(=O)O)c45)ccc3C)c2)c1 [SM, 8,8′-[carbonylbis[imino-3,1-phenylenecarbonylimino (4-methyl-3,1-phenylene)carbonylimino]]bisnaphthalene-1,3,5-trisulphonic acid] | moderately increased survival rates | 76.5 days | slowed down compared to the control | did not cause significant weight loss | Neither the SM nor the GCS-SM NP groups showed significant effect on lung weight | no cytotoxicity was observed | 3.70 | neither SM nor GCS-SM NP inhibited cell proliferation | only slightly inhibited cell migration | did not decrease the formation of new blood vessels | significantly inhibited | 718 | 1 to 17 µM | normal kidney histologic structure | mild reduction in the occupied area ratio between the tumorous tissue and normal tissue | – | – | – | – | –
COc1cccc2c1C(=O)c1c(O)c3c(c(O)c1C2=O)C[C@@](O)(C(=O)CO)C[C@@H]3O[C@H]1C[C@H](N)[C@H](O)[C@H](C)O1 [DOX, doxorubicin] | – | – | – | – | – | – | – | – | – | – | – | – | – | – | – | about 75% | did not additionally boost its cytotoxicity | greatly enhanced | entered cells much more slowly than GCS-SM/DOX NPs | still stayed in the cytosol
